Test results from the supplement of paper PMC10307832.

What was measured:
Assay in all cases: relative viability (nuclei count vs DMSO), 5 days (fraction); higher = more cells survive
[1] = compound: O=C(O)c1ccc2c(c1)nc(Nc1cccc(Cl)c1)c1ccncc12 [Silmitasertib] + CC(C)C[C@H](NC(=O)[C@H](Cc1ccccc1)NC(=O)c1cnccn1)B(O)O [Bortezomib] (partner 0.002 µM)
In short: (§1)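 A single step with final 0.05% Triton X-100, 1% formaldehyde and 1 ug/ml Hoechst fixed the cells and stained nuclei 5 days after treatment. Lung cancer cell lines in 1536-well plates had been treated by pin tool the day after seeding with one drug alone or a fixed anchor-drug dose plus five library-drug doses (not always all listed) in √10 steps, and nuclei were counted on 4× images. Relative viability is the ratio of nuclei in treated wells to nuclei in vehicle wells, taken as the median of duplicate plates.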

[2] = compound: O=C(O)c1ccc2c(c1)nc(Nc1cccc(Cl)c1)c1ccncc12 [Silmitasertib] + N=C(N)NC(=N)NCCc1ccccc1 [Phenformin] (partner 250 µM)
In short: as §1

[3] = compound: O=C(O)c1ccc2c(c1)nc(Nc1cccc(Cl)c1)c1ccncc12 [Silmitasertib] + Nc1nc2[nH]cc(CCc3ccc(C(=O)N[C@@H](CCC(=O)O)C(=O)O)cc3)c2c(=O)[nH]1 [Pemetrexed] (partner 0.2 µM)
In short: as §1

[4] = compound: O=C(O)c1ccc2c(c1)nc(Nc1cccc(Cl)c1)c1ccncc12 [Silmitasertib] + Cc1cc(Nc2cc(N3CCN(C)CC3)nc(Sc3ccc(NC(=O)C4CC4)cc3)n2)n[nH]1 [Tozasertib] (partner 0.1 µM)
In short: as §1

[5] = compound: O=C(O)c1ccc2c(c1)nc(Nc1cccc(Cl)c1)c1ccncc12 [Silmitasertib] + C[C@]1(O)C[C@@H](c2nc(-c3ccc4ccc(-c5ccccc5)nc4c3)c3c(N)nccn32)C1 [Linsitinib] (partner 1 µM)
In short: as §1

Row | Cell Line | relative viability ([1]; first compound 0.04 µM) | relative viability ([1]; first compound 0.4 µM) | relative viability ([1]; first compound 1.265 µM) | relative viability ([1]; first compound 4 µM) | relative viability ([2]; first compound 0.04 µM) | relative viability ([2]; first compound 0.4 µM) | relative viability ([2]; first compound 1.265 µM) | relative viability ([2]; first compound 4 µM) | relative viability ([3]; first compound 0.04 µM) | relative viability ([3]; first compound 0.4 µM) | relative viability ([3]; first compound 1.265 µM) | relative viability ([3]; first compound 4 µM) | relative viability ([4]; first compound 0.04 µM) | relative viability ([4]; first compound 0.4 µM) | relative viability ([4]; first compound 1.265 µM) | relative viability ([4]; first compound 4 µM) | relative viability ([5]; first compound 0.04 µM) | relative viability ([5]; first compound 0.4 µM) | relative viability ([5]; first compound 1.265 µM) | relative viability ([5]; first compound 4 µM)
1 | LC-2-ad | 1.13 | 0.858 | 1 | 0.605 | 0.645 | 0.59 | 0.488 | 0.314 | 0.288 | 0.264 | 0.26 | 0.227 | 0.537 | 0.411 | 0.388 | 0.374 | 0.731 | 0.881 | 0.836 | 0.918
2 | HCC-78 | 0.609 | 0.333 |  | 0.551 | 0.678 | 0.517 | 0.707 | 0.594 | 0.91 | 0.886 | 0.613 | 0.918 | 0.446 | 0.315 | 0.384 | 0.492 | 0.723 | 0.469 | 0.375 | 0.481
3 | LOU-NH91 | 0.509 | 0.46 | 0.394 | 0.452 | 0.812 | 0.617 | 0.584 | 0.423 | 0.357 | 0.383 | 0.368 | 0.457 | 0.689 | 0.539 | 0.441 | 0.484 | 1.11 | 0.859 | 0.796 | 0.754
4 | NCI-H1734 | 0.911 |  | 0.827 | 0.841 | 0.499 | 0.358 | 0.42 | 0.357 | 0.443 | 0.336 | 0.423 | 0.386 | 0.275 | 0.261 | 0.274 | 0.243 | 0.884 |  | 0.801 | 0.929
5 | NCI-H520 | 0.622 | 0.515 | 0.389 | 0.422 | 0.677 | 0.492 | 0.605 | 0.429 | 0.716 | 0.716 | 0.694 | 0.566 | 0.443 | 0.429 | 0.42 | 0.394 | 1.05 | 1.17 | 1.04 | 0.785
6 | UMC-11 | 0.679 | 0.588 | 0.65 | 0.542 | 0.336 | 0.319 | 0.341 | 0.286 | 0.951 | 0.785 | 0.774 | 0.553 | 0.199 | 0.218 | 0.184 | 0.16 | 1.04 | 1.08 | 1.1 | 0.678
7 | NCI-H596 | 1 | 0.818 | 1.02 | 0.751 | 0.655 | 0.632 | 0.735 | 0.573 | 0.523 | 0.502 | 0.54 | 0.472 | 0.967 | 0.735 | 0.624 | 0.799 | 1.09 | 1.07 | 0.839 | 0.933
8 | NCI-H1755 | 0.91 | 0.905 | 0.95 | 0.945 | 0.643 | 0.601 | 0.637 | 0.586 | 0.422 | 0.489 | 0.383 | 0.386 | 0.572 | 0.519 | 0.623 | 0.714 | 1.02 | 1.04 | 1.06 | 1.13
9 | SK-LU-1 | 1.33 | 0.735 | 0.801 | 0.394 | 0.527 | 0.451 | 0.426 | 0.262 | 0.984 | 0.885 | 0.771 | 0.351 | 0.358 | 0.315 | 0.221 | 0.195 | 1.22 | 0.987 | 0.688 | 0.297
10 | NCI-H647 | 1.12 | 0.866 | 0.705 | 0.343 | 0.513 | 0.303 | 0.477 | 0.189 | 0.183 | 0.16 | 0.148 | 0.134 | 0.324 | 0.211 | 0.196 | 0.175 | 1.37 | 1.24 | 1.05 | 0.663
11 | SW 1573 | 1.09 | 1.15 | 1.02 | 0.977 | 0.465 | 0.319 | 0.336 | 0.387 | 1.11 | 0.875 | 0.89 | 0.697 | 0.199 | 0.185 | 0.231 | 0.187 | 0.805 | 0.679 | 0.855 | 0.682
12 | HCC-15 | 1.02 | 0.655 | 0.856 | 0.408 | 0.541 | 0.39 | 0.398 | 0.25 | 0.242 | 0.229 | 0.216 | 0.215 | 0.392 | 0.356 | 0.232 | 0.133 | 0.882 | 0.681 | 0.671 | 0.475
13 | NCI-H2126 | 1.08 | 0.98 | 1.08 | 1.05 | 0.494 | 0.515 | 0.494 | 0.462 | 0.734 | 0.623 | 0.672 | 0.491 | 0.845 | 0.759 | 0.793 | 0.709 | 0.722 | 0.737 | 0.626 | 0.585
14 | NCI-H2085 | 1.19 | 0.614 | 0.873 | 0.889 | 0.761 |  | 0.675 | 0.597 | 1.02 | 0.647 | 0.833 | 0.867 | 0.82 | 0.737 | 0.602 | 0.533 | 0.95 | 0.8 | 0.828 | 0.806
15 | BEN | 0.9 | 0.584 | 0.644 | 0.599 | 0.275 |  | 0.281 | 0.258 | 0.905 | 0.715 | 0.703 | 0.609 | 0.435 | 0.367 | 0.481 | 0.422 | 1.03 | 0.892 | 1.01 | 0.882
16 | NCI-H650 | 0.996 | 0.515 | 0.614 | 0.345 | 0.542 | 0.339 | 0.377 | 0.235 | 0.981 | 0.433 | 0.912 | 0.659 | 0.874 | 0.492 | 0.496 | 0.355 | 0.96 | 0.563 | 0.757 | 0.407
17 | LCLC-103H | 1.15 | 0.956 | 0.817 | 0.739 | 0.314 | 0.307 | 0.32 | 0.23 | 0.49 | 0.394 | 0.416 | 0.378 | 0.522 | 0.341 | 0.356 | 0.289 | 1.09 | 1.19 | 1.04 | 0.796
18 | PC-14 | 0.946 | 0.788 | 0.871 | 0.819 | 0.641 |  | 0.547 | 0.125 | 0.134 |  | 0.122 | 0.113 | 0.668 |  | 0.595 | 0.532 | 0.966 | 0.999 | 1.01 | 0.993
19 | NCI-H2228 | 1.46 | 0.92 | 0.912 | 1.13 | 0.409 |  | 0.258 | 0.371 | 0.331 | 0.337 | 0.333 | 0.307 | 0.287 |  | 0.247 | 0.23 | 0.787 | 0.548 | 0.786 | 0.628
20 | COR-L23 | 1.15 | 0.723 | 0.919 | 0.932 | 0.51 | 0.372 | 0.483 | 0.314 | 0.206 | 0.223 | 0.181 | 0.192 | 0.232 | 0.2 | 0.118 | 0.159 | 1.02 | 0.843 | 0.821 | 0.638
21 | NCI-H1915 | 1.01 |  | 1.02 | 0.424 | 0.362 |  | 0.37 | 0.249 | 0.503 |  | 0.429 | 0.302 | 0.487 |  | 0.38 | 0.283 | 1.13 |  | 1.18 | 0.956
